The record followed here is patent US12324848B2, “Core shell silica particles and uses thereof as an anti-bacterial agent” (Colgate-Palmolive Company, priority 2013, dated 2025).

The subject of this series is Chemostat Inoculum (bacteria cocktail with A. viscosus, S. oralis, V. parvula, L. casei, and F. nucleatum). Put plainly: Resazurin anti-bacterial test (bacterial viability microassay). It counts as cell-based. The note with it: 1 hr incubation with test solution 1:1 in 1/4 strength trypticase soy broth, average of runs over 4-5 days, concentration as in toothpaste formula. Here is the method:
The core shell silica (CSS) particles of the invention were testing for anti-bacterial activity using the resazurin anti-bacterial test assay wherein the reduction of resazurin is a measure of reduction of bacterial growth.
All solutions are measured for the bacterial viability using resazurin microassay with Chemostat Inoculum (bacteria cocktail with A. viscosus, S. oralis, V. parvula, L. casei, and F. nucleatum) used in oral care product evaluation. Resazurin (7-Hydroxy-3H-phenoxazin-3-one 10-oxide) is a blue dye used as oxidation—reduction reaction, quantifies bacterial viability from color perception with respiring reaction effect.
Each experiment is conducted with live and dead bacterial cocktail with A. viscosus, S. oralis, V. parvula, L. casei, and F. nucleatum using TSB broth (trypticase soy broth) and ethanol respectively and they were added at proper ratio to generate standard curve from 100% live bacterial cocktail to 100% dead bacterial cocktail collecting at a total of 12 points.
The assay is performed using bacteria pellet from 1 ml Chemostat Inoculum and exposed with 1/4 strength trypticase soy broth: test solution at 1:1 ratio in Eppendorf tube. After 1 hr incubation further bacteria growth was deactivated adding 1 ml D/E Broth with proper mixing and collected pellet was rinsed with 1 ml TSB broth to remove D/E broth completely (D/E=Dey-Engley). […]

Turning to `[Cl-].[Cl-].[Zn+2]` [Positive control (1% ZnCl2 + water), zinc chloride], the “% of viable bacteria” value is recorded as 4.88%.
